ChEMBL document CHEMBL4342450, “Antitumor Activity of Ohmyungsamycin A through the Regulation of the Skp2-p27 Axis and MCM4 in Human Colorectal Cancer Cells” (J Nat Prod, 2020)
Activity calls are given as the source filed them. The calls are words filed in the database; no cut-off is given here. *1 amine or outer side, *2 acyl side, *3 side chain or, on linkers, in order; H or OH if unused. Where a SMILES comes first, the peptide text is derived from it. Bridges are numbered along the chain shown (N, C = ends). [ ]: non-standard residue; d: D form. Phe(3R-OH) = O=C([C@@H](N[*:1])[C@H](O[*:3])c1ccccc1)[*:2]; NMeTrp(4-OMe) = CN[C@@H](Cc1c[nH]c2cccc(OC)c12)C(=O)O; NMeT = CN[C@H](C(=O)O)[C@@H](C)O; NMeL = CN[C@@H](CC(C)C)C(=O)O; NMeV = CN[C@H](C(=O)O)C(C)C

What was measured:
HCT-116 [1] = experiment: Induction of cell cycle arrest in human HCT116 cells assessed as accumulation at sub-G1 phase at 20 uM incubated for 18 hrs by propidium iodide staining based flow cytometry (reference value: 0.9%); assay type: functional
HCT-116 [2] = experiment: Induction of cell cycle arrest in human HCT116 cells assessed as accumulation at S phase at 10 uM incubated for 24 hrs by propidium iodide staining based flow cytometry (reference value: 21.2%); assay type: functional
A549 = experiment: Antiproliferative activity against human A549 cells after 72 hrs by sulforhodamine B assay; assay type: functional, cell-based; settings: A549, 72 h
HCT-116 [3] = experiment: Antitumor activity against human HCT116 cells xenografted in BALB/c nude mouse assessed as reduction in tumor volume at 5 to 10 mg/kg, ip administered thrice a week for 3.5 weeks and measured […] by caliper method; assay type: functional, organism-based
HCT-116 [4] = experiment: Downregulation of TMSB15A gene expression in human HCT116 cells assessed as fold change at 15 uM incubated for 24 hrs by cDNA microarray analysis relative to control; assay type: functional
HCT-116 [5] = experiment: Downregulation of HSPA1B gene expression in human HCT116 cells assessed as fold change at 15 uM incubated for 24 hrs by cDNA microarray analysis relative to control; assay type: functional
HCT-116 [6] = experiment: Effect on Skp1 expression in human HCT116 cells at 5 to 20 uM after 24 hrs by Western blot analysis; assay type: functional, cell-based
HCT-116 [7] = experiment: Induction of cell cycle arrest in human HCT116 cells assessed as accumulation at G2/M phase at 20 uM incubated for 24 hrs by propidium iodide staining based flow cytometry (reference value: 15.7%); assay type: functional
HCT-116 [8] = experiment: Modulation of Skp2-p27 Axis in human HCT116 cells assessed as reduction in Skp2 mRNA level at 5 to 20 uM after 12 hrs by real-time PCR method; assay type: functional, cell-based
HCT-116 [9] = experiment: Induction of cell cycle arrest in human HCT116 cells assessed as accumulation at sub-G1 phase at 10 uM incubated for 24 hrs by propidium iodide staining based flow cytometry (reference value: 4.8%); assay type: functional
HCT-116 [10] = experiment: Induction of cell cycle arrest in human HCT116 cells assessed as accumulation at sub-G1 phase at 10 uM incubated for 18 hrs by propidium iodide staining based flow cytometry (reference value: 0.9%); assay type: functional
HCT-116 [11] = experiment: Downregulation of CCNE2 gene expression in human HCT116 cells assessed as fold change at 15 uM incubated for 24 hrs by cDNA microarray analysis relative to control; assay type: functional
HCT-116 [12] = experiment: Downregulation of GINS2 gene expression in human HCT116 cells assessed as fold change at 15 uM incubated for 24 hrs by cDNA microarray analysis relative to control; assay type: functional
Mus musculus = experiment: In vivo modulation of MCM4 in tumor of BALB/c nude mouse xenografted with human HCT116 cells assessed as downregulation of MCM4 level at 5 to 10 m/kg, ip administered thrice a week for 3.5 weeks by Western blot analysis; assay type: functional, organism-based
HCT-116 [13] = experiment: Induction of cell cycle arrest in human HCT116 cells assessed as accumulation at G0/G1 phase at 5 uM incubated for 18 hrs by propidium iodide staining based flow cytometry (reference value: 43.3%); assay type: functional
HCT-116 [14] = experiment: Induction of cell cycle arrest in human HCT116 cells assessed as accumulation at G2/M phase at 20 uM incubated for 18 hrs by propidium iodide staining based flow cytometry (reference value: 25.1%); assay type: functional
HCT-116 [15] = experiment: Induction of cell cycle arrest in human HCT116 cells assessed as accumulation at S phase at 5 uM incubated for 18 hrs by propidium iodide staining based flow cytometry (reference value: 26.8%); assay type: functional
HCT-116 [16] = experiment: Downregulation of CDCA7 gene expression in human HCT116 cells assessed as fold change at 15 uM incubated for 24 hrs by cDNA microarray analysis relative to control; assay type: functional
HCT-116 [17] = experiment: Induction of apoptosis in human HCT116 cells assessed as reduction in Bcl-2 level at 5 to 20 uM after 24 hrs by Western blot analysis; assay type: functional, cell-based
HCT-116 [18] = experiment: Induction of apoptosis in human HCT116 cells assessed as increase in cleaved caspase 8 level after 24 hrs by Western blot analysis; assay type: functional, cell-based
HCT-116 [19] = experiment: Induction of apoptosis in human HCT116 cells assessed as increase in cleaved PARP level at 20 uM after 24 hrs by Western blot analysis; assay type: functional, cell-based
MRC5 = experiment: Antiproliferative activity against human MRC5 cells after 72 hrs by sulforhodamine B assay; assay type: cell-based; settings: MRC5, 72 h
HCT-116 [20] = experiment: Downregulation of MCM10 gene expression in human HCT116 cells assessed as fold change at 15 uM incubated for 24 hrs by cDNA microarray analysis relative to control; assay type: functional
HCT-116 [21] = experiment: Induction of cell cycle arrest in human HCT116 cells assessed as accumulation at sub-G1 phase at 5 uM incubated for 24 hrs by propidium iodide staining based flow cytometry (reference value: 4.8%); assay type: functional
HCT-116 [22] = experiment: Downregulation of SKP2 gene expression in human HCT116 cells assessed as fold change at 15 uM incubated for 24 hrs by cDNA microarray analysis relative to control; assay type: functional
HCT-116 [23] = experiment: Induction of morphological changes in human HCT116 cells assessed as appearance of shrunken cells at 4 to 20 uM by inverted phase-contrast microscopic method; assay type: functional, cell-based
HCT-116 [24] = experiment: Downregulation of PEG10 gene expression in human HCT116 cells assessed as fold change at 15 uM incubated for 24 hrs by cDNA microarray analysis relative to control; assay type: functional
HCT-116 [25] = experiment: Downregulation of HSPA1A gene expression in human HCT116 cells assessed as fold change at 15 uM incubated for 24 hrs by cDNA microarray analysis relative to control; assay type: functional
HCT-116 [26] = experiment: Induction of morphological changes in human HCT116 cells assessed as appearance of pin-point shape cells at 4 to 20 uM by inverted phase-contrast microscopic method; assay type: functional, cell-based
HCT-116 [27] = experiment: Antitumor activity against human HCT116 cells xenografted in BALB/c nude mouse assessed as tumor weight at 10 mg/kg, ip administered thrice a week for 3.5 weeks measured on last day (reference value: 100%); assay type: functional
HCT-116 [28] = experiment: Induction of cell cycle arrest in human HCT116 cells assessed as accumulation at sub-G1 phase at 5 uM incubated for 18 hrs by propidium iodide staining based flow cytometry (reference value: 0.9%); assay type: functional
HCT-116 [29] = experiment: Downregulation of FAM111B gene expression in human HCT116 cells assessed as fold change at 15 uM incubated for 24 hrs by cDNA microarray analysis relative to control; assay type: functional
HCT-116 [30] = experiment: Modulation of Skp2-p27 Axis in human HCT116 cells assessed as downregulation of Skp2 expression at 5 to 20 uM after 24 hrs by Western blot analysis; assay type: functional, cell-based
HCT-116 [31] = experiment: Downregulation of INSIG1 gene expression in human HCT116 cells assessed as fold change at 15 uM incubated for 24 hrs by cDNA microarray analysis relative to control; assay type: functional
HCT-116 [32] = experiment: Downregulation of MCM5 gene expression in human HCT116 cells assessed as fold change at 15 uM incubated for 24 hrs by cDNA microarray analysis relative to control; assay type: functional
MDA-MB-231 = experiment: Antiproliferative activity against human MDA-MB-231 cells after 72 hrs by sulforhodamine B assay; assay type: functional, cell-based; settings: MDA-MB-231, 72 h

CN[C@H](C(=O)N[C@H](C(=O)N[C@@H]1C(=O)N(C)[C@@H]([C@@H](C)O)C(=O)N[C@@H](C(C)C)C(=O)N(C)[C@@H](CC(C)C)C(=O)N[C@@H](C(C)C)C(=O)N(C)[C@@H](C(C)C)C(=O)N(C)[C@@H](Cc2c[nH]c3cccc(OC)c23)C(=O)N[C@@H](C(C)C)C(=O)N[C@@H]([C@H](O)c2ccccc2)C(=O)N[C@@H](C(C)C)C(=O)O[C@@H]1C)C(C)C)C(C)C (H-[NMeV]VT[NMeT]V[NMeL]V[NMeV][NMeTrp(4-OMe)]V[Phe(3R-OH)]V; ester 3-C)
Activity (HCT-116 [1]): 7.1%
Activity (HCT-116 [2]): 4.4%
IC50 (A549): 8.35 µM
Activity (HCT-116 [3]): Active
fold change (FC) (HCT-116 [4]): 6.779
fold change (FC) (HCT-116 [5]): 4.531
Activity (HCT-116 [6]): inactive
Activity (HCT-116 [7]): 10.8%
inhibition (HCT-116 [8]): Active
Activity (HCT-116 [9]): 14.7%
Activity (HCT-116 [10]): 1.8%
fold change (FC) (HCT-116 [11]): 4.613
fold change (FC) (HCT-116 [12]): 7.45
inhibition (Mus musculus): Active
Activity (HCT-116 [13]): 45.8%
Activity (HCT-116 [14]): 16.9%
Activity (HCT-116 [15]): 27.5%
fold change (FC) (HCT-116 [16]): 4.702
Activity (HCT-116 [17]): Active
Activity (HCT-116 [18]): Dose-dependent effect
Activity (HCT-116 [19]): Active
IC50 (MRC5): > 50 µM
fold change (FC) (HCT-116 [20]): 4.889
Activity (HCT-116 [21]): 19%
fold change (FC) (HCT-116 [22]): 4.898
Activity (HCT-116 [23]): Active
fold change (FC) (HCT-116 [24]): 4.917
fold change (FC) (HCT-116 [25]): 4.43
Activity (HCT-116 [26]): Active
Activity (HCT-116 [27]): 47.9%
Activity (HCT-116 [28]): 1.4%
fold change (FC) (HCT-116 [29]): 7.557
inhibition (HCT-116 [30]): Active
fold change (FC) (HCT-116 [31]): 4.476
fold change (FC) (HCT-116 [32]): 5.219
IC50 (MDA-MB-231): 9.89 µM
